Laboratory results published in ChEMBL document CHEMBL3046934, “Effectiveness of thiamethoxam and imidacloprid seed treatments against Bemisia tabaci (Hemiptera: Aleyrodidae) on cotton” (Pest Manag Sci, 2011).
The source made the active and inactive calls. No cut-off for these calls is given here.

Assays:
Cotyledon [1] = assay: Drug uptake in Gossypium hirsutum (cotton) cotyledon at 0.375 mg ai/seed measured 10 days post germination under green house conditions; assay type: ADME; settings: in vivo, other, 240 h
Leaf [2] = assay: Drug uptake in Gossypium hirsutum (cotton) leaf at 0.375 mg ai/seed measured 10 days post germination under green house conditions; assay type: ADME; settings: in vivo, other, 240 h
Bemisia tabaci [3] = assay: Insecticidal activity against nymph stage of Bemisia tabaci (sweet potato whitefly) infested cotton leaves assessed as increase in mortality at 0.375 mg ai/seed measured 2 weeks post sowing to 9 weeks under field conditions relative to untreated control; assay type: functional, organism-based
Bemisia tabaci [4] = assay: Insecticidal activity against adult Bemisia tabaci (sweet potato whitefly) infested cotton leaves assessed as increase in mortality at 0.375 mg ai/seed measured 10 to 40 days post germination under laboratory conditions relative to untreated control; assay type: functional, organism-based
Bemisia tabaci [5] = assay: Insecticidal activity against adult Bemisia tabaci (sweet potato whitefly) infested cotton leaves assessed as increase in mortality at 0.375 mg ai/seed measured 10 to 40 days post germination under green house conditions relative to untreated control; assay type: functional, organism-based
Bemisia tabaci [6] = assay: Insecticidal activity against nymph stage of Bemisia tabaci (sweet potato whitefly) infested cotton leaves assessed as increase in mortality at 0.375 mg ai/seed measured 10 to 40 days post germination under green house conditions relative to untreated control; assay type: functional, organism-based
Bemisia tabaci [7] = assay: Insecticidal activity against nymph stage of Bemisia tabaci (sweet potato whitefly) infested cotton leaves assessed as mortality at 0.375 mg ai/seed measured 10 to 40 days post germination under laboratory conditions relative to untreated control; assay type: functional, organism-based
Bemisia tabaci [8] = assay: Insecticidal activity against adult Bemisia tabaci (sweet potato whitefly) infested cotton leaves assessed as increase in mortality at 0.375 mg ai/seed measured 2 weeks post sowing to 9 weeks under field conditions relative to untreated control; assay type: functional, organism-based
Bemisia tabaci [9] = assay: Insecticidal activity against adult Bemisia tabaci (sweet potato whitefly) infested cotton leaves assessed as decrease in egg deposition at 0.375 mg ai/seed measured 10 to 40 days post germination under laboratory conditions relative to untreated control; assay type: functional, organism-based
Bemisia tabaci [10] = assay: Insecticidal activity against adult Bemisia tabaci (sweet potato whitefly) infested cotton leaves assessed as effect on laid eggs at 0.375 mg ai/seed measured 10 to 40 days post germination under laboratory conditions relative to untreated control; assay type: functional, organism-based
Bemisia tabaci [11] = assay: Insecticidal activity against adult Bemisia tabaci (sweet potato whitefly) infested cotton leaves assessed as decrease in egg production at 0.375 mg ai/seed measured 10 to 40 days post germination under green house conditions relative to untreated control; assay type: functional, organism-based
Bemisia tabaci [12] = assay: Insecticidal activity against adult Bemisia tabaci (sweet potato whitefly) infested cotton leaves assessed as increase in mortality at 0.342 mg ai/seed measured 10 to 40 days post germination under green house conditions relative to untreated control; assay type: functional, organism-based
Bemisia tabaci [13] = assay: Insecticidal activity against nymph stage of Bemisia tabaci (sweet potato whitefly) infested cotton leaves assessed as increase in mortality at 0.342 mg ai/seed measured 2 weeks post sowing to 9 weeks under field conditions relative to untreated control; assay type: functional, organism-based
Bemisia tabaci [14] = assay: Insecticidal activity against adult Bemisia tabaci (sweet potato whitefly) infested cotton leaves assessed as effect on laid eggs at 0.342 mg ai/seed measured 10 to 40 days post germination under laboratory conditions relative to untreated control; assay type: functional, organism-based
Bemisia tabaci [15] = assay: Insecticidal activity against adult Bemisia tabaci (sweet potato whitefly) infested cotton leaves assessed as increase in mortality at 0.342 mg ai/seed measured 10 to 40 days post germination under laboratory conditions relative to untreated control; assay type: functional, organism-based
Cotyledon [16] = assay: Drug uptake in Gossypium hirsutum (cotton) cotyledon at 0.342 mg ai/seed measured 10 days post germination under green house conditions; assay type: ADME; settings: in vivo, other, 240 h
Bemisia tabaci [17] = assay: Insecticidal activity against nymph stage of Bemisia tabaci (sweet potato whitefly) infested cotton leaves assessed as increase in mortality at 0.342 mg ai/seed measured 10 to 40 days post germination under laboratory conditions relative to untreated control; assay type: functional, organism-based
Bemisia tabaci [18] = assay: Insecticidal activity against nymph stage of Bemisia tabaci (sweet potato whitefly) infested cotton leaves assessed as increase in mortality at 0.342 mg ai/seed measured 10 to 40 days post germination under green house conditions relative to untreated control; assay type: functional, organism-based
Bemisia tabaci [19] = assay: Insecticidal activity against adult Bemisia tabaci (sweet potato whitefly) infested cotton leaves assessed as increase in mortality at 0.342 mg ai/seed measured 2 weeks post sowing to 9 weeks under field conditions relative to untreated control; assay type: functional, organism-based
Bemisia tabaci [20] = assay: Insecticidal activity against adult Bemisia tabaci (sweet potato whitefly) infested cotton leaves assessed as decrease in egg production at 0.342 mg ai/seed measured 10 to 40 days post germination under green house conditions relative to untreated control; assay type: functional, organism-based
Leaf [21] = assay: Drug uptake in Gossypium hirsutum (cotton) leaf at 0.342 mg ai/seed measured 10 days post germination under green house conditions; assay type: ADME; settings: in vivo, other, 240 h
Bemisia tabaci [22] = assay: Insecticidal activity against adult Bemisia tabaci (sweet potato whitefly) infested cotton leaves assessed as decrease in egg deposition at 0.342 mg ai/seed measured 10 to 40 days post germination under laboratory conditions relative to untreated control; assay type: functional, organism-based

O=[N+]([O-])NC1=NCCN1Cc1ccc(Cl)nc1 [IMIDACLOPRID]
Drug uptake (Cotyledon [1]): Active | Drug uptake (Leaf [2]): Active

O=[N+]([O-])/N=C1\NCCN1Cc1ccc(Cl)nc1
Activity (Bemisia tabaci [3]): Active | Activity (Bemisia tabaci [4]): Active | Activity (Bemisia tabaci [5]): Active | Activity (Bemisia tabaci [6]): Active | Activity (Bemisia tabaci [7]): Active | Activity (Bemisia tabaci [8]): Active | Activity (Bemisia tabaci [9]): Active | Activity (Bemisia tabaci [10]): inactive | Activity (Bemisia tabaci [11]): Active

CN1COCN(Cc2cnc(Cl)s2)/C1=N\[N+](=O)[O-] [THIAMETHOXAM]
Activity (Bemisia tabaci [12]): Active | Activity (Bemisia tabaci [13]): Active | Activity (Bemisia tabaci [14]): inactive | Activity (Bemisia tabaci [15]): Active | Drug uptake (Cotyledon [16]): Active | Activity (Bemisia tabaci [17]): Active | Activity (Bemisia tabaci [18]): Active | Activity (Bemisia tabaci [19]): Active | Activity (Bemisia tabaci [20]): Active | Drug uptake (Leaf [21]): Active | Activity (Bemisia tabaci [22]): Active
